In article PMC6563076 (2019):

Tests used:
[1] = tested on: telo23 (DNA, G4) TAGGGTTAGGGTTAGGGTTAGGG; assay: 1H NMR; settings: Na+ (25 mM sodium phosphate, 70 mM NaCl); pH 7.0, 298 K, 175 µM DNA, 2 equivalents ligand; imino signals lost
[2] = tested on: F21T (DNA, G4) GGGTTAGGGTTAGGGTTAGGG; assay: FRET melting; settings: 1 μM ligand, 200 nM DNA, 10 mM Li cacodylate, ΔT1/2 used as ΔTm
[3] = tested on: FmycT (DNA, G4) TTGAGGGTGGGTAGGGTGGGTAA; assay: FRET melting; settings: 1 mM KCl, 99 mM LiCl; 1 μM ligand, 200 nM DNA, 10 mM Li cacodylate; ΔT1/2 used as ΔTm
[4] = tested on: F10T (DNA, hairpin, hexaethylene glycol (HEG) linker between 10 and 11) TATAGCTATATATAGCTATA; assay: FRET melting; settings: 10 mM KCl, 90 mM LiCl; 1 μM ligand, 200 nM DNA, 10 mM Li cacodylate; ΔT1/2 used as ΔTm
[5] = tested on: telo23 (DNA, G4) TAGGGTTAGGGTTAGGGTTAGGG; assay: CD titration; settings: pH 7.4, 20 °C, 4.22 µM DNA
[6] = tested on: telo22 (DNA, G4) AGGGTTAGGGTTAGGGTTAGGG; assay: CD titration; settings: Na+ (100 mM sodium phosphate); pH 7.4; conformational change similar to telo23

binding [1] | ΔTm ([2]; 10 mM KCl, 90 mM LiCl) [°C] | ΔTm ([2]; 100 mM NaCl) [°C] | ΔTm [3] [°C] | ΔTm [4] [°C] | binding ([5]; K+ (100 mM potassium phosphate), no conformational change, ICD seen) | binding ([5]; Na+ (100 mM sodium phosphate), ligand unfolds the G4) | binding [6] | Structure (SMILES)
yes | 21.4±0.3 | 11.8±0.6 | 15.8±0.8 | 0.8±0.2 | yes | yes | yes | C[n+]1ccc(-c2ccc3c(c2)/C(=C2\CCc4ccc(-c5cc[n+](C)cc5)cc42)CC3)cc1
 | 9.7 ± 0.5 | 5.4 ± 1.0 | 5.1 ± 1.4 | 0.1 ± 0.1 |  |  |  | C[n+]1ccc(-c2ccc3c(c2)/C(=C2/CCc4ccc(-c5cc[n+](C)cc5)cc42)CC3)cc1
